Data set [1] is described as follows: Stability of 99mTc-complex by reversed phase HPLC. The data set is classed as physicochemical. To be noted: for approximately 4 hours; reaction mixture, RP-HPLC. The procedure:
Radiochemical purity of ^99mTc-complex (25) was determined by HPLC using a C-18 reverse-phase column as a stationary phase and a water/ACN as a mobile phase, while maintaining a flow rate of 1 ml/min.
The complex is stable (>90%) for approximately 4 hours.

The nature of data set [2]: Static image scan of rabbits after intravenous injection. The format is in vivo, male New Zealand white rabbits. To be noted: rabbit, image 5 min after injection. As for the experimental part: Static image of male New Zealand white rabbits scanned at 5 and 10 min.
At an image of 5 min. after the injection, high activity was found in the liver. A trace amount of ^99mTc-8-[3-({2-[4-(2-methoxy-phenyl)-piperazin-1-yl]-ethyl}-pyridin-2-yl-amino)-propyl]-[1,2,5,8]dithiadiazecan-6-one (25) seemed to be remained in the brain.

Data set [3] can be described thus: Paper electrophoresis in 0.1 M phosphate buffer (pH7.4). The format is physicochemical. To be noted: aqueous solution, 0.1 M phosphate buffer pH7.4, 45 min, 400 V (20 V/cm). The procedure:
Filtered preparation was applied on a paper eluted with 0.1 M phosphate buffer (pH7.4) for 45 min. at a 400 V (20 V/cm).

Bounds are passed on as bounds.

In the case of “^99mTc-8-[3-({2-[4-(2-methoxy-phenyl)-piperazin-1-yl]-ethyl}-pyridin-2-yl-amino)-propyl]-[1,2,5,8]dithiadiazecan-6-one [Compound 25]”, the “stability of the complex” value in data set [1] is recorded as greater than 90%. In data set [2], the “activity in the liver on image” value is listed as “high activity” and the “amount remained in the brain on image” value was “trace amount”. In addition, the “charge observed in paper electrophoresis” value in data set [3] is listed as “neutral charge”.

For the origin of these results see US7875287B2, “Tc-labeled arylpiperazine derivatives for imaging serotonin receptor” (Korea Atomic Energy Research Institute, priority 2005, dated 2011).
